Assays:
[1] = biological target: T1, Human immunodeficiency virus type 1 integrase (Human immunodeficiency virus 1, UniProt Q7ZJM1); assay: Inhibition of HIV1 recombinant integrase 3' processing activity using [32P]-radiolabeled full-length DNA as substrate after 1 hr by densitometric analysis
[2] = biological target: T1, Human immunodeficiency virus type 1 integrase; assay: Inhibition of HIV1 recombinant integrase strand transfer activity using [32P]-radiolabeled full-length DNA as substrate after 1 hr by densitometric analysis
[3] = biological target: T1, Human immunodeficiency virus type 1 integrase; assay: Inhibition of HIV1 recombinant integrase strand transfer activity using precleaved LTR DNA as substrate after 1 hr by densitometric analysis
[4] = biological target: Human immunodeficiency virus type 1 integrase (Human immunodeficiency virus 1) (UniProt Q7ZJM1); assay: Selectivity ratio of IC50 for HIV1 recombinant integrase strand transfer activity using precleaved LTR DNA as substrate to IC50 for HIV1 recombinant integrase strand transfer activity using [32P]-radiolabeled full-length DNA as substrate
Sequence of Human immunodeficiency virus type 1 integrase (Human immunodeficiency virus 1) (Q7ZJM1 as listed by the source): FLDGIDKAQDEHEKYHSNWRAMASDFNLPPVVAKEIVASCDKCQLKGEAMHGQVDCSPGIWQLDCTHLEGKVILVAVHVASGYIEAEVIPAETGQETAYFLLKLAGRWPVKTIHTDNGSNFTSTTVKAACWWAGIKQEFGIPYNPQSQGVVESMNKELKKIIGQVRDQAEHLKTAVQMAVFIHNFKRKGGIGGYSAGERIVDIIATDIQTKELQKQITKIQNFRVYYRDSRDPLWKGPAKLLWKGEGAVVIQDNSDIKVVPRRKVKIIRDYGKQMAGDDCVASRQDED

T1 sequence (Q7ZJM1 whole entry): as the sequence (Q7ZJM1 as listed by the source) above

| SMILES | IC50 [1] [µM] | IC50 [2] [µM] | IC50 [3] [µM] | Ratio IC50 [4] |
| --- | --- | --- | --- | --- |
| CCCCCCCC[N+](C)(CCCCCCCC)CCCCCCCC [listing 1 of 2 here] | 9 | 6.12 | – | – |
| CCCCCCCC[n+]1ccccc1 | > 100 | > 100 | – | – |
| CCCCCCCCN(CCCCCCCC)CCCCCCCC | > 333 | > 333 | – | – |
| CCCCCCCCN(C)CCCCCCCC | > 333 | > 333 | – | – |
| CCCCCCCCCCCCCCCCCCPCCCCCCCCCCCCCC.O=S(=O)(NS(=O)(=O)C(F)(F)F)C(F)(F)F (stereo not given) | > 100 | > 100 | – | – |
| CCCCCCCC[N+]1(C)CCCC1 | > 100 | > 100 | – | – |
| CCCCCCCCCCCCCCCCCC[n+]1ccn(C)c1.O=S(=O)([N-]S(=O)(=O)C(F)(F)F)C(F)(F)F | 1.6 | 1.53 | 4 | – |
| C[N+](C)(C)C.FC(F)(F)C(F)(F)[P-](F)(F)(F)(C(F)(F)C(F)(F)F)C(F)(F)C(F)(F)F | 138 | 38.5 | – | – |
| CCCCCCCC[N+](C)(CCCCCCCC)CCCCCCCC [listing 2 of 2 here] | 6.8 | 2.8 | – | – |
| CCCCCCCCCCn1cc[n+](C)c1 | > 333 | > 333 | – | – |
| CCCCCCCCCCCCCCn1cc[n+](C)c1 | 55.2 | 20.2 | – | – |
| CCCCCCCCCCn1ccnc1 | > 333 | > 333 | – | – |
| C[N+](C)(C)C.O=C1O[B-]2(OC1=O)OC(=O)C(=O)O2 | > 333 | 310 | – | – |
| CCCCCCCCCCCCn1cc[n+](C)c1 | 72 | 36.6 | – | – |
| CCCCCCCC[n+]1ccn(C)c1 | > 100 | > 100 | – | – |
| CCCCCCCC[N+](C)(CCCCCCCC)CCCCCCCC.O=S(=O)([N-]S(=O)(=O)C(F)(F)F)C(F)(F)F | > 100 | 6.6 | – | – |
| CCCCCCCCCCCCCCCCn1cc[n+](C)c1 | 2.5 | 1.3 | 5.6 | 3 |
| CCCCCCCCCCCCCCCCCCn1ccnc1 | > 333 | > 333 | – | – |
| CCCCCCCCCCCCCCCCCC[n+]1ccn(C)c1 [listing 1 of 2 here] | 1.7 | 1.1 | 3.5 | – |
| CCCCCCCCCCCCCCCCCC[n+]1ccn(C)c1 [listing 2 of 2 here] | – | 1.4 | – | – |
| CN(C)C(N(C)C)N(C)C | > 100 | > 100 | – | – |

— ChEMBL document CHEMBL3217518, “Biological evaluation of imidazolium- and ammonium-based salts as HIV-1 integrase inhibitors” (Medchemcomm, 2011)
